Experimental findings from ChEMBL document CHEMBL2029320 (J Med Chem, 2012) are described below.

The target in one assay is T1, Relaxin-3 receptor 1 (Homo sapiens, UniProt Q9NSD7).
T1 sequence (Q9NSD7 whole entry): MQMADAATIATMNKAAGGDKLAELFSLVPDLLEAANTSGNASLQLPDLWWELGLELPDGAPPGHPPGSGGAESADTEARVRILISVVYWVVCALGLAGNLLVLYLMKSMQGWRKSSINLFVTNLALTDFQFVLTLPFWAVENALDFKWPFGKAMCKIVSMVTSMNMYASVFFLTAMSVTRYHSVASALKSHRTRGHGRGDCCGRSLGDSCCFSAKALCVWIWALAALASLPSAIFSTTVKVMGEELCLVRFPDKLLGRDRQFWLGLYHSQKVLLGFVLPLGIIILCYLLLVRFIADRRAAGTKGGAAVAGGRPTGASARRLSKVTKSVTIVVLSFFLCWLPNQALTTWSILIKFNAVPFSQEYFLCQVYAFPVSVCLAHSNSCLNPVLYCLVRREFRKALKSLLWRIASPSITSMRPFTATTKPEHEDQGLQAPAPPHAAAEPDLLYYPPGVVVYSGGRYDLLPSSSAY
Put plainly: Displacement of europium-labelled H3 relaxin-B chain/INSL-5 chain from RXFP3 expressed in CHO-K1 cells. The class given is cell-based.

Assay [1] deals with T2, Relaxin receptor 1 (Homo sapiens) (UniProt Q9HBX9).
T2 sequence (whole entry): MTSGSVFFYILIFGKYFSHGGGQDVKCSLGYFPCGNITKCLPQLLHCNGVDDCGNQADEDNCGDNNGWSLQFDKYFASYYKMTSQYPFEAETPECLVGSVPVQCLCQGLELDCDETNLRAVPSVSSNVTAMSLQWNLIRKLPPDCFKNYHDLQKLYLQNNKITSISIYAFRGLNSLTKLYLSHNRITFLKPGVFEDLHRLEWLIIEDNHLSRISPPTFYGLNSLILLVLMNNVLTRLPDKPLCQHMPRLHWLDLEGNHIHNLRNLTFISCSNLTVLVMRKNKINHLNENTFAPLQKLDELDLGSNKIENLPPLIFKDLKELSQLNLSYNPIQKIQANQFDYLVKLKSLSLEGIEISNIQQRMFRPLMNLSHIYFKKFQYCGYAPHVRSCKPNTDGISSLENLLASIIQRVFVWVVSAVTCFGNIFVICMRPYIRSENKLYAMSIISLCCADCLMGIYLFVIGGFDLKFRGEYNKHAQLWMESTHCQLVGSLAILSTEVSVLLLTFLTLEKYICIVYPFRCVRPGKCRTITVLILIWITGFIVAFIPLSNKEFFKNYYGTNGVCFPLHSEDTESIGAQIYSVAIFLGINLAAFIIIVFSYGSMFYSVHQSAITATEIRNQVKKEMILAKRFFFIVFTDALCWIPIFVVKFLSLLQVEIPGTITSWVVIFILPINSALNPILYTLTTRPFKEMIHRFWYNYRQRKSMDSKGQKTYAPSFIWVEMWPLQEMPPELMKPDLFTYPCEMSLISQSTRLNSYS
The experiment in a line: Activation of RXFP1 expressed in HEK-293T cells assessed as induction of cAMP accumulation after 6 hrs by beta galactosidase reporter gene assay. It is filed as functional, cell-based. (In general: Cyclic AMP is a second messenger, typically raised through Gs and lowered through Gi signalling.)

In another assay the target is T3, Relaxin receptor 1 (Homo sapiens, UniProt Q9HBX9).
T3 sequence (Q9HBX9 whole entry): T2 sequence (whole entry)
The experiment in a line: Displacement of europium-labelled H2 relaxin from RXFP1 expressed in HEK-293T cells. The class given is cell-based.

The next assay addresses Relaxin-3 receptor 2 (Homo sapiens, UniProt Q8TDU9). Put plainly: Agonist activity at RXFP4 expressed in CHO-K1 cells assessed as inhibition of forskolin-induced cAMP accumulation after 6 hrs by beta galactosidase reporter gene assay. It is filed as functional, cell-based.

Activity calls are given as the source filed them. The rule behind the calls is not given here. Residues, ends and D or L forms follow the SMILES beside them.

Chain of Relaxin-3 receptor 2 (Q8TDU9 whole entry): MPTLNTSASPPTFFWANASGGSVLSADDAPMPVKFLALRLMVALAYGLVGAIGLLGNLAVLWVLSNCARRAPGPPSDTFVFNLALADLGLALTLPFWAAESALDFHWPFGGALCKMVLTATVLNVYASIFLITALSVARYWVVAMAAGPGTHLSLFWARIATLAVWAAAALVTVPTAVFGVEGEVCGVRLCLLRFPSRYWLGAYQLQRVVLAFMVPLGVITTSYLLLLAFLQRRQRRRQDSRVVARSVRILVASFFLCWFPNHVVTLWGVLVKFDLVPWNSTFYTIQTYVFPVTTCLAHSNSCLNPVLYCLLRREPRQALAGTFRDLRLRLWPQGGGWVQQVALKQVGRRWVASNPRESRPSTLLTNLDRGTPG

What is called Ki is the equilibrium dissociation constant of an inhibitor or competing ligand from its target. For the molecule H-RAAPYGVRLSGREFIRAVIFRSGGSRW-OH, the inhibition constant (Ki) on Relaxin-3 receptor 1 is 741 nM.

The molecule H-RAAPYGVRLSGREFIRKVIFTSGGSRW-OH had a Ki at Relaxin-3 receptor 1 of more than 10000 nM.

As for `CC[C@H](C)[C@@H]1NC(=O)[C@H](Cc2ccccc2)NC(=O)[C@H](CCC(=O)O)NC(=O)[C@H](CCCNC(=N)N)NC(=O)CNC(=O)[C@@H](NC(=O)[C@H](CC(C)C)NC(=O)[C@@H](N)CCCNC(=N)N)CSSC[C@H](N)C(=O)N[C@@H](CCCCN)C(=O)N[C@@H](Cc2c[nH]c3ccccc23)C(=O)NCC(=O)N[C@@H](C)C(=O)N[C@@H](CO)C(=O)N[C@@H](CCCCN)C(=O)N[C@@H](CO)C(=O)N[C@@H](CCC(=O)O)C(=O)N[C@@H]([C@@H](C)CC)C(=O)N[C@@H](CO)C(=O)N[C@@H](CO)C(=O)N[C@@H](CC(C)C)C(=O)N[C@H](C(=O)O)CSSC[C@@H](C(=O)NCC(=O)NCC(=O)N[C@@H](CO)C(=O)N[C@@H](CCCNC(=N)N)C(=O)N[C@@H](Cc2c[nH]c3ccccc23)C(=O)O)NC(=O)[C@H]([C@@H](C)O)NC(=O)[C@H](Cc2ccccc2)NC(=O)[C@H]([C@@H](C)CC)NC(=O)[C@H](C(C)C)NC(=O)[C@H](C)NC(=O)[C@H](CCCNC(=N)N)NC1=O`, the pIC50 entry in assay [1] was “inactive”.

H-RAAPYGVRLSGREFIRAVIFTRGGSRW-OH showed an inhibition constant (Ki) at Relaxin-3 receptor 1 of 3390 nM.

In the case of H-RAAPYGVRLSGREFIRAVIFTSRGGSRW-OH, at Relaxin-3 receptor 1, the affinity, expressed as Ki, was 2570 nM.

For `CC[C@H](C)[C@H](NC(=O)[C@H](CS)NC(=O)[C@H](CCC(=O)O)NC(=O)[C@H](CCCN=C(N)N)NC(=O)CNC(=O)[C@H](CS)NC(=O)[C@H](CC(C)C)NC(=O)[C@H](CCCN=C(N)N)NC(=O)[C@@H](NC(=O)CNC(=O)[C@H](Cc1ccc(O)cc1)NC(=O)[C@@H]1CCCN1C(=O)[C@H](C)NC(=O)[C@H](C)NC(=O)[C@@H](N)CCCN=C(N)N)C(C)C)C(=O)N[C@@H](CCCN=C(N)N)C(=O)N[C@@H](C)C(=O)N[C@@H](CS)C(=O)N[C@H](C(=O)N[C@@H](Cc1ccccc1)C(=O)N[C@H](C(=O)N[C@@H](CS)C(=O)NCC(=O)NCC(=O)N[C@@H](CO)C(=O)N[C@@H](CCCN=C(N)N)C(=O)N[C@@H](Cc1c[nH]c2ccccc12)C(=O)O)[C@@H](C)O)[C@@H](C)CC` (H-RAAPYGVRLCGRECIRACIFTCGGSRW-OH), the inhibitory constant (Ki) at Relaxin-3 receptor 1 is more than 10000 nM.

Take H-RAAPYGVRLSGREFIRAVIFTSGGSRW-OH: affinity on Relaxin-3 receptor 1 was put at a Ki of 2950 nM.

Turning to `CC[C@H](C)[C@@H]1NC(=O)[C@H](Cc2ccccc2)NC(=O)[C@H](CCC(=O)O)NC(=O)[C@H](CCCNC(=N)N)NC(=O)CNC(=O)[C@@H](N)CSSC[C@H](N)C(=O)N[C@@H](CCCCN)C(=O)N[C@@H](Cc2c[nH]c3ccccc23)C(=O)NCC(=O)N[C@@H](C)C(=O)N[C@@H](CO)C(=O)N[C@@H](CCCCN)C(=O)N[C@@H](CO)C(=O)N[C@@H](CCC(=O)O)C(=O)N[C@@H]([C@@H](C)CC)C(=O)N[C@@H](CO)C(=O)N[C@@H](CO)C(=O)N[C@@H](CC(C)C)C(=O)N[C@H](C(=O)O)CSSC[C@@H](C(=O)NCC(=O)NCC(=O)N[C@@H](CO)C(=O)N[C@@H](CCCNC(=N)N)C(=O)N[C@@H](Cc2c[nH]c3ccccc23)C(=O)O)NC(=O)[C@H]([C@@H](C)O)NC(=O)[C@H](Cc2ccccc2)NC(=O)[C@H]([C@@H](C)CC)NC(=O)[C@H](C(C)C)NC(=O)[C@H](C)NC(=O)[C@H](CCCNC(=N)N)NC1=O`, the pIC50 result in assay [1] is “inactive”.

For orientation: IC50 means the concentration that inhibits the measured activity by half. `CC[C@H](C)[C@@H]1NC(=O)[C@H](Cc2ccccc2)NC(=O)[C@H](CCC(=O)O)NC(=O)[C@H](CCCNC(=N)N)NC(=O)CNC(=O)[C@@H](NC(=O)[C@H](CC(C)C)NC(=O)[C@H](CCCNC(=N)N)NC(=O)[C@@H](NC(=O)CN)C(C)C)CSSC[C@H](N)C(=O)N[C@@H](CCCCN)C(=O)N[C@@H](Cc2c[nH]c3ccccc23)C(=O)NCC(=O)N[C@@H](C)C(=O)N[C@@H](CO)C(=O)N[C@@H](CCCCN)C(=O)N[C@@H](CO)C(=O)N[C@@H](CCC(=O)O)C(=O)N[C@@H]([C@@H](C)CC)C(=O)N[C@@H](CO)C(=O)N[C@@H](CO)C(=O)N[C@@H](CC(C)C)C(=O)N[C@H](C(=O)O)CSSC[C@@H](C(=O)NCC(=O)NCC(=O)N[C@@H](CO)C(=O)N[C@@H](CCCNC(=N)N)C(=O)N[C@@H](Cc2c[nH]c3ccccc23)C(=O)O)NC(=O)[C@H]([C@@H](C)O)NC(=O)[C@H](Cc2ccccc2)NC(=O)[C@H]([C@@H](C)CC)NC(=O)[C@H](C(C)C)NC(=O)[C@H](C)NC(=O)[C@H](CCCNC(=N)N)NC1=O`: the inhibition constant Ki on Relaxin receptor 1 was more than 10 µM. Moreover, the IC50 on Relaxin-3 receptor 2 is 14.1 nM. In addition, the pIC50 result in assay [1] is “inactive”.

For the molecule `CC[C@H](C)[C@H](NC(=O)[C@H](Cc1ccccc1)NC(=O)[C@H](CCC(=O)O)NC(=O)[C@H](CCCNC(=N)N)NC(=O)CNC(=O)[C@H](CO)NC(=O)[C@H](CC(C)C)NC(=O)[C@H](CCCNC(=N)N)NC(=O)[C@@H](NC(=O)CNC(=O)[C@H](CS)NC(=O)[C@@H]1CCCN1C(=O)[C@H](C)NC(=O)[C@H](C)NC(=O)[C@@H](N)CCCNC(=N)N)C(C)C)C(=O)N[C@@H](CCCNC(=N)N)C(=O)N[C@@H](C)C(=O)N[C@H](C(=O)N[C@H](C(=O)N[C@@H](Cc1ccccc1)C(=O)N[C@@H](CS)C(=O)N[C@@H](CO)C(=O)NCC(=O)NCC(=O)N[C@@H](CO)C(=O)N[C@@H](CCCNC(=N)N)C(=O)N[C@@H](Cc1c[nH]c2ccccc12)C(=O)O)[C@@H](C)CC)C(C)C` (H-RAAPCGVRLSGREFIRAVIFCSGGSRW-OH), on Relaxin-3 receptor 1, the inhibition constant (Ki) is more than 10000 nM.

For the molecule `CC[C@H](C)[C@H](NC(=O)[C@@H](NC(=O)[C@H](C)NC(=O)[C@H](CCCN=C(N)N)NC(=O)[C@H](CS)NC(=O)[C@H](Cc1ccccc1)NC(=O)[C@H](CCC(=O)O)NC(=O)[C@H](CCCN=C(N)N)NC(=O)CNC(=O)[C@H](CO)NC(=O)[C@H](CC(C)C)NC(=O)[C@H](CCCN=C(N)N)NC(=O)[C@@H](NC(=O)CNC(=O)[C@H](Cc1ccc(O)cc1)NC(=O)[C@@H]1CCCN1C(=O)[C@H](C)NC(=O)[C@H](C)NC(=O)[C@@H](N)CCCN=C(N)N)C(C)C)C(C)C)C(=O)N[C@@H](Cc1ccccc1)C(=O)N[C@H](C(=O)N[C@@H](CS)C(=O)NCC(=O)NCC(=O)N[C@@H](CO)C(=O)N[C@@H](CCCN=C(N)N)C(=O)N[C@@H](Cc1c[nH]c2ccccc12)C(=O)O)[C@@H](C)O` (H-RAAPYGVRLSGREFCRAVIFTCGGSRW-OH), on Relaxin-3 receptor 1, the Ki was more than 10000 nM.

Turning to `CC[C@H](C)[C@@H]1NC(=O)[C@H](Cc2ccccc2)NC(=O)[C@H](CCC(=O)O)NC(=O)[C@H](CCCN=C(N)N)NC(=O)CNC(=O)[C@@H](N)CSSC[C@H](N)C(=O)N[C@@H](CCCCN)C(=O)N[C@@H](Cc2c[nH]c3ccccc23)C(=O)NCC(=O)N[C@@H](C)C(=O)N[C@@H](CO)C(=O)N[C@@H](CCCCN)C(=O)N[C@@H](CO)C(=O)N[C@@H](CCC(=O)O)C(=O)N[C@@H]([C@@H](C)CC)C(=O)N[C@@H](CO)C(=O)N[C@@H](CO)C(=O)N[C@@H](CC(C)C)C(=O)N[C@H](C(=O)O)CSSC[C@@H](C(=O)NCC(=O)NCC(=O)N[C@@H](CO)C(=O)N[C@@H](CCCN=C(N)N)C(=O)N[C@@H](Cc2c[nH]c3ccccc23)C(=O)O)NC(=O)[C@H]([C@@H](C)O)NC(=O)[C@H](Cc2ccccc2)NC(=O)[C@H]([C@@H](C)CC)NC(=O)[C@H](C(C)C)NC(=O)[C@H](C)NC(=O)[C@H](CCCN=C(N)N)NC1=O`, the Ki on Relaxin receptor 1 is more than 10 µM. The half-maximal inhibitory concentration (IC50) on Relaxin-3 receptor 2 is 3.47 nM.

Molecule H-RAAPYGVRLSGREFIRAVIFTSRGSRW-OH showed a Ki at Relaxin-3 receptor 1 of 2090 nM.
